Where two headings read alike, the source gives them in different places.
Experiments:
[1] = molecular target: T1, catalytic domain of human Bub1 (amino acids 704-1085) (Homo sapiens, UniProt O43683); test: Bub1 kinase assay (TR-FRET); format: biochemical
T1 construct: catalytic domain of human Bub1 (amino acids 704-1085); His6 (N); made in house; host or cells: Hi5 insect cells
In short: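 Compounds from 2 mM DMSO stocks, serially diluted 1:3.4, incubated with enzyme at 22° C for 60 min. Stopped with EDTA, then 1 h with streptavidin-XL665, anti-phosphoserine antibody and Eu-labelled anti-mouse IgG. Phosphorylated biotin-peptide read by TR-FRET; IC50 by 4-parameter logistic fit.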

HeLa = test: Proliferation assay (HeLa cell line); conditions: Homo sapiens, 96 h, read-out: Biological Assay 2: Proliferation assay (HeLa cell line) median IC50;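 note: crystal violet staining of cell number, scaled between a plate stained before dosing (0%) and cells left untreated (100%), compounds tested at 0.001-10 µM, IC50 via 4-parameter fit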
Protocol: Cultivated tumor cells (cells were ordered from ATCC, except HeLa-MaTu and HeLa-MaTu-ADR, which were ordered from EPO-GmbH, Berlin) were plated at a density of 1000 to 5000 cells/well, depending on the growth rate of the respective cell line, in a 96-well multititer plate in 200 μL of their respective growth medium supplemented 10% fetal calf serum. After 24 hours, the cells of one plate (zero-point plate) were stained with crystal violet (see below), while the medium of the other plates was replaced by fresh culture medium (200 μL), to which the test substances were added in various concentrations (0 μM, as well as in the range of 0.001-10 μM; the final concentration of the solvent dimethyl sulfoxide was 0.5%). The cells were incubated for 4 days in the presence of test substances. Cell proliferation was determined by staining the cells with crystal violet: the cells were fixed by adding 20 μL measuring point of an 11% glutaric aldehyde solution for 15 minutes at room temperature. After three washing cycles of the fixed cells with water, the plates were dried at room temperature. The cells were stained by adding 100 μL/measuring point of a 0.1% crystal violet solution (pH 3.0). After three washing cycles of the stained cells with water, the plates were dried at room temperature. The dye was dissolved by adding 100 μl/measuring point of a 10% acetic acid solution. […] The change of cell number, in percent, was calculated by normalization of the measured values to the absorbtion values of the zero-point plate (=0%) and the absorbtion of the untreated (0 μm) cells (=100%). The IC50 values were determined by means of a 4 parameter fit.

[2] = system: HeLa human cervical tumor cells; test: Proliferation assay (HeLa+Paclitaxel); conditions: read-out: Biological Assay 3: HeLa + Paclitaxel IC50, 3 nM paclitaxel, crystal violet;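 note: compounds at 0.001-10 µM added 4 h after paclitaxel, 92 h exposure, absorbance normalized to zero-point plate (0%) and untreated cells (100%), IC50 from 4-parameter fit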
[3] = Biological Assay 1: Bub1 kinase assay median IC50, 10 μM ATP
[4] = 10 μM ATP, read-out: Biological Assay 1: Bub1 kinase assay median IC50

T1 sequence (O43683 704-1085): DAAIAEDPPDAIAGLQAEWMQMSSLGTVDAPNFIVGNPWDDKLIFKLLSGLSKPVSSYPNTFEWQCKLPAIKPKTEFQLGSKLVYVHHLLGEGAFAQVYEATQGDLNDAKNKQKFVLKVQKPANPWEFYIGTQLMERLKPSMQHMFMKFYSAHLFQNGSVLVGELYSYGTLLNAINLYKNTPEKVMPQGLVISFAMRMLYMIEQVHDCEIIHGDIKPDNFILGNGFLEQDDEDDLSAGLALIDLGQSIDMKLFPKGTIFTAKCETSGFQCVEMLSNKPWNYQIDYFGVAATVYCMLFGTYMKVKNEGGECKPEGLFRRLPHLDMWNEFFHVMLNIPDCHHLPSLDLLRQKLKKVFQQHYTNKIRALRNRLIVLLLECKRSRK

| Structure (SMILES) | IC50 [1, 3] | IC50 (HeLa) | IC50 [2] | IC50 [1, 4] |
| --- | --- | --- | --- | --- |
| CCOc1cc(F)c(Cn2nc(-c3nc(Nc4ccncn4)cc(C4CCCO4)n3)c3ccccc32)c(F)c1 (racemic) [Example 2-12-86, 2-[1-(4-ethoxy-2,6-difluorobenzyl)-1H-indazol-3-yl]-N-(pyrimidin-4-yl)-6-[(2rac)-tetrahydrofuran-2-yl]pyrimidin-4-amine] | 0.0075 µM | 3.9 µM | 1.4 µM |  |
| CCOc1cc(F)c(Cn2nc(-c3nc(Nc4ccnc(C)n4)cc(C4CCCO4)n3)c3ccccc32)c(F)c1 (racemic) [Example 2-12-87, 2-[1-(4-ethoxy-2,6-difluorobenzyl)-1H-indazol-3-yl]-N-(2-methylpyrimidin-4-yl)-6-[(2rac)-tetrahydrofuran-2-yl]pyrimidin-4-amine] | 0.037 µM | 9.3 µM | 1.5 µM |  |
| CCOc1cc(F)c(Cn2nc(-c3nc(Nc4ccncc4OC)cc(C4CCCO4)n3)c3ccccc32)c(F)c1 (racemic) [Example 2-12-88, 2-[1-(4-ethoxy-2,6-difluorobenzyl)-1H-indazol-3-yl]-N-(3-methoxypyridin-4-yl)-6-[(2rac)-tetrahydrofuran-2-yl]pyrimidin-4-amine] | 0.0058 µM | 1.2 µM | 0.2 µM |  |
| Cc1cnccc1Nc1nc(-c2nn(Cc3c(F)cc(OCCO)cc3F)c3ccccc23)nc2c1CCC2 [Example 2-4-8, 2-{3,5-difluoro-4-[(3-{4-[(3-methylpyridin-4-yl)amino]-6,7-dihydro-5H-cyclopenta[d]pyrimidin-2-yl}-1H-indazol-1-yl)methyl]phenoxy}ethanol] | 0.005 µM | 1.8 µM | 0.37 µM |  |
| CC1(C)CCc2c(nc(-c3nn(Cc4c(F)cc(OCCO)cc4F)c4ccccc34)nc2Nc2ccncc2Cl)C1 [Example 2-6-25, 2-{4-[(3-{4-[(3-chloropyridin-4-yl)amino]-7,7-dimethyl-5,6,7,8-tetrahydroquin-azolin-2-yl}-1H-indazol-1-yl)methyl]-3,5-difluorophenoxy} ethanol] | 0.048 µM | 7.6 µM | 0.37 µM |  |
| Cc1cc(Nc2ccnc(C)n2)nc(-c2nn(Cc3c(F)cc(OCCO)cc3F)c3ccccc23)n1 [Example 2-6-27, 2-{3,5-difluoro-4-[(3-{4-methyl-6-[(2-methylpyrimidin-4-yl)amino]pyrimidin-2-yl}-1H-indazol-1-yl)methyl]phenoxy}ethanol] | 0.043 µM | 5.1 µM | 0.29 µM |  |
| COc1cnccc1Nc1cc(C(C)C)nc(-c2nn(Cc3c(F)cc(OCCO)cc3F)c3ccccc23)n1 [Example 2-6-29, 2-{3,5-difluoro-4-[(3-{4-isopropyl-6-[(3-methoxypyridin-4-yl)amino]pyrimidin-2-yl}-1H-indazol-1-yl)methyl]phenoxy}ethanol] |  | 1.3 µM | 0.21 µM | 0.031 µM |
| COc1cnccc1Nc1nc(-c2nn(Cc3c(F)cc(OCCO)cc3F)c3ccccc23)nc(C)c1C [Example 2-6-31, 2-{3,5-difluoro-4-[(3-{4-[(3-methoxypyridin-4-yl)amino]-5,6-dimethylpyrimidin-2-yl}-1H-indazol-1-yl)methyl]phenoxy}ethanol] |  | 4.9 µM | 0.76 µM | 0.0067 µM |
| COc1cnccc1Nc1cc(C)nc(-c2nn(Cc3c(F)cc(OCCO)cc3F)c3ccccc23)n1 [Example 2-6-33, 2-{3,5-difluoro-4-[(3-{4-[(3-methoxypyridin-4-yl)amino]-6-methylpyrimidin-2-yl}-1H-indazol-1-yl)methyl]phenoxy}ethanol] |  | 3.5 µM | 1.8 µM | 0.0057 µM |
| COc1cnccc1Nc1nc(-c2nn(Cc3c(F)cc(OCCO)cc3F)c3ccccc23)ncc1C [Example 2-6-34, 2-{3,5-difluoro-4-[(3-{4-[(3-methoxypyridin-4-yl)amino]-5-methylpyrimidin-2-yl}-1H-indazol-1-yl)methyl]phenoxy}ethanol] |  | 3.4 µM | 1.1 µM | 0.0051 µM |
| Cc1cc(Nc2ccncc2OC(F)(F)F)nc(-c2nn(Cc3c(F)cc(OCCO)cc3F)c3ccccc23)n1 [Example 2-6-35, 2-(3,5-difluoro-4-{[3-(4-methyl-6-{[3-(trifluoromethoxy)pyridin-4-yl]amino}pyrimidin-2-yl)-1H-indazol-1-yl]methyl}phenoxy)ethanol] |  | 2.3 µM | 1.3 µM | 0.0054 µM |
| COc1cnccc1Nc1nc(-c2nn(Cc3c(F)cc(OCCO)cc3F)c3ccccc23)ncc1C1CC1 [Example 2-6-36, 2-{4-[(3-{5-cyclopropyl-4-[(3-methoxypyridin-4-yl)amino]pyrimidin-2-yl}-1H-indazol-1-yl)methyl]-3,5-difluorophenoxy} ethanol] |  | 3.4 µM | 0.63 µM | 0.0096 µM |
| Cc1nccc(Nc2nc(-c3nn(Cc4c(F)cc(OCCO)cc4F)c4ccccc34)nc3c2CN(CC(F)(F)F)C3)n1 [Example 2-6-39, 2-{3,5-difluoro-4-[(3-{4-[(2-methylpyrimidin-4-yl)amino]-6-(2,2,2-trifluoroethyl)-6,7-dihydro-5H-pyrrolo[3,4-d]pyrimidin-2-yl}-1H-indazol-1-yl)methyl]phenoxy}ethanol] | 0.055 µM | 7 µM | 1.5 µM |  |
| CCOc1cc(F)c(Cn2nc(-c3ncc(C4CN(CC(F)(F)F)C4)c(Nc4ccncc4)n3)c3ccccc32)c(F)c1 [Example 2-11-2, 2-[1-(4-ethoxy-2,6-difluorobenzyl)-1H-indazol-3-yl]-N-(pyridin-4-yl)-5-[1-(2,2,2-trifluoroeth-yl)azetidin-3-yl]pyrimidin-4-amine] | 0.02 µM | 3.4 µM | 0.12 µM |  |
| CCOc1cc(F)c(Cn2nc(-c3nc4c(c(Nc5cc(OC)ncn5)n3)CCC4)c3ccccc32)c(F)c1 [Example 2-12-26, 2-[1-(4-ethoxy-2,6-difluorobenzyl)-1H-indazol-3-yl]-N-(6-methoxypyrimidin-4-yl)-6,7-dihydro-5H-cyclopenta[d]pyrimidin-4-amine] | 0.13 µM | 8 µM | 1 µM |  |
| CCOc1cc(F)c(Cn2nc(-c3nc4c(c(Nc5cc(C)nc(C)n5)n3)CCC4)c3ccccc32)c(F)c1 [Example 2-12-27, N-(2,6-dimethylpyrimidin-4-yl)-2-[1-(4-ethoxy-2,6-difluorobenzyl)-1H-indazol-3-yl]-6,7-dihydro-5H-cyclopenta[d]pyrimidin-4-amine] | 0.61 µM | 3.1 µM | 0.21 µM |  |
| CCOc1cc(F)c(Cn2nc(-c3nc4c(c(Nc5ccnc(NC(=O)C6CC6)c5)n3)CCC4)c3ccccc32)c(F)c1 [Example 2-12-28, N-[4-({2-[1-(4-ethoxy-2,6-difluorobenzyl)-1H-indazol-3-yl]-6,7-dihydro-5H-cyclopenta[d]pyrimidin-4-yl}amino)pyridin-2-yl]cyclopropanecarbox-amide] | 0.0094 µM | 5.3 µM | 0.29 µM |  |
| COCCOc1cc(F)c(Cn2nc(-c3nc4c(c(Nc5ccncc5Cl)n3)CCC4)c3ccccc32)c(F)c1 [Example 2-12-30, N-(3-chloropyridin-4-yl)-2-{1-[2,6-difluoro-4-(2-methoxyethoxy)benzyl]-1H-indazol-3-yl}-6,7-dihydro-5H-cyclopenta[d]pyrimidin-4-amine] | 0.06 µM | 8.6 µM | 0.14 µM |  |
| COCCOc1cc(F)c(Cn2nc(-c3nc4c(c(Nc5ccncc5OC)n3)CCC4)c3ccccc32)c(F)c1 [Example 2-12-31, 2-{1-[2,6-difluoro-4-(2-methoxyethoxy)benzyl]-1H-indazol-3-yl}-N-(3-methoxypyridin-4-yl)-6,7-dihydro-5H-cyclopenta[d]pyrimidin-4-amine] | 0.013 µM | 3.9 µM | 0.08 µM |  |
| CCOc1cc(F)c(Cn2nc(-c3nc4c(c(Nc5cc(Cl)ncn5)n3)CCC4)c3ccccc32)c(F)c1 [Example 2-12-32, N-(6-chloropyrimidin-4-yl)-2-[1-(4-ethoxy-2,6-difluorobenzyl)-1H-indazol-3-yl]-6,7-dihydro-5H-cyclopenta[d]pyrimidin-4-amine] | 0.33 µM | > 10 µM | 0.53 µM |  |
| CCOc1cc(F)c(Cn2nc(-c3nc4c(c(Nc5ccnc(S(C)(=O)=O)c5)n3)CCC4)c3ccccc32)c(F)c1 [Example 2-19-6, 2-[1-(4-ethoxy-2,6-difluorobenzyl)-1H-indazol-3-yl]-N-[2-(methylsulfonyl)pyridin-4-yl]-6,7-dihydro-5H-cyclopenta[d]pyrimidin-4-amine] |  | > 10 µM | 0.48 µM |  |
| COCCOc1cc(F)c(Cn2nc(-c3nc4c(c(Nc5ccncn5)n3)CN(CC(F)(F)F)C4)c3ccccc32)c(F)c1 [Example 2-20-18, 2-{1-[2,6-difluoro-4-(2-methoxyethoxy)benzyl]-1H-indazol-3-yl}-N-(pyrimidin-4-yl)-6-(2,2,2-trifluoroethyl)-6,7-dihydro-5H-pyrrolo[3,4-d]pyrimidin-4-amine] | 0.028 µM |  |  |  |
| CCOc1cc(F)c(Cn2nc(-c3ncc(OCC[S+](C)[O-])c(Nc4ccncc4)n3)c3ccccc32)c(F)c1 (stereo not shown) [Example 3-2-1, 2-[1-(4-ethoxy-2,6-difluorobenzyl)-1H-indazol-3-yl]-5-[2-(methylsulfinyl)ethoxy]-N-(pyridin-4-yl)pyrimidin-4-amine, reference compound] |  | 4.5 µM | 0.41 µM |  |
| CCOc1cc(F)c(Cn2nc(-c3ncc(OCCN)c(Nc4ccncc4)n3)c3ccccc32)c(F)c1 [Example 3-4-1, 5-(2-aminoethoxy)-2-[1-(4-ethoxy-2,6-difluorobenzyl)-1H-indazol-3-yl]-N-(pyridin-4-yl)pyrimidin-4-amine, reference compound] |  | 1.4 µM |  | 0.0034 µM |

Reference: patent publication US20170275270A1, “BENZYL SUBSTITUTED INDAZOLES” (Bayer Pharma Aktiengesellschaft, priority 2014, published 2017)
